This is an account of results in patent US20230049115A1, “SYSTEM AND METHOD FOR TARGET THERMAL ANALYSIS IN COMPLEX FLUIDS” (Portland State University, priority 2021, published 2023).

Several values for one entry are separate records, joined by “and”; a condition that tells them apart may be missing. Equal entries are not always repeated.

Data set [1] concerns the target T1, streptavidin (Streptomyces avidinii, UniProt P22629).
T1 construct: purchased Alfa Aesar
The data set can be described thus: DSC thermogram shift on streptavidin-biotin binding, in buffer and in reconstituted E. coli lysate. The note with it: for Streptavidin + Biotin Tm: 2 molar equivalents of biotin. The protocol:
(§1) Preparation of Samples for DSC Measurements: E. coli lysate was prepared by resuspending powdered lysate in standard PBS buffer to make a 2.7 mg/mL lysate solution. The HEK923 cell lysate was the supernatant after initial centrifugation of the crude cell lysate and received in liquid form at unknown concentration. […] Streptavidin, captopril, lisinopril, and biotin were prepared in standard buffer. All samples were incubated for 24 hours at 4° C.
(§2) DSC Measurements: DSC melting experiments were made using a CSC differential scanning microcalorimeter (now T.A. instruments, New Castle, Del.). Samples were prepared by adding specific reaction components to pre-prepared media. For DSC melting experiments, the sample heating rate was approximately 1° C./min while monitoring changes in the excess heat (microwatts) of the sample versus temperature. […] Since all experiments involved investigating interactions of ligands with proteins using DSC, we were interested in testing the sensitivity or our approach to detect proteins and protein/ligand interactions in the background solution comprised of the crude cell lysate. Consequently, all DSC measurements were made on samples in the lysate media, E. coli lysate or HEK923 supernatant, where samples were prepared. Thermograms were acquired for the complex media background, several proteins, and mixtures of these proteins with ligands, i.e. drugs or other another protein.
(§3) Data Reduction and Analysis: Where the protein concentration was known, further refinement and normalization of the data provided the familiar DSC melting curve in the form of a plot of excess heat capacity, ΔCP, of the sample as a function of increasing temperature. Plots of ΔCP versus temperature are commonly termed DSC thermograms. In this case, the enthalpy of the transition can be estimated from the integrated area under the thermogram. These enthalpies can be used to gain valuable insight into protein structural stability (Eskew et al., Anal Biochem 2021, 612:113843). […] For these measurements, meaningful transition enthalpies cannot be determined.
(§4) Baselines of the raw ΔCP or μW versus temperature thermograms for E. coli were determined using a three point polynomial fit, over the temperature range of the transition, which produced a nearly straight line from 40° C. to 110° C. Baselines of the raw ΔCP or μW versus temperature thermograms for HEK293 samples were determined by connecting a straight line between data points at 40° C. and 100° C. This baseline was then subtracted from the raw curves, producing baseline corrected thermograms used for further comparisons and analysis. Between initial and final temperatures, ΔCp, for proteins is known to vary from 7-10 kcal/mol·K (Watanabe et al., Pharm Res. 2001, 18:1775-1781; Shrake et al., Vox sanguinis 1984, 47:7-18). Baseline choices served to effectively remove this difference (Eskew et al., Anal Biochem 2021, 612:113843; Lang et al., Biotechnology Progress 2015, 31:62-69). […] For all experiments thermograms of the media alone served as the background that was subtracted from thermograms of samples containing drugs and/or proteins in the same media. These difference thermograms provided enhanced visualization of sample-specific changes, corresponding predominantly to the ligand/protein interactions of concern.
Streptavidin-Biotin: Initial investigations explored streptavidin-biotin binding in reconstituted E. coli lysate. Binding behavior was examined under several conditions meant to mimic what might be encountered in an actual expression system. FIGS. 4A-4D and 5A-5D present results of this initial study. The thermogram of the E. coli lysate alone served as the background against which streptavidin-biotin binding was examined. Along with that of the media (alone) thermograms for lysate solutions containing streptavidin in different amounts, and streptavidin plus two molar equivalents of biotin in the background media solution are also shown in FIGS. 4A-4D. […]
A general note: DSC measures the heat that a sample takes up or gives off during a temperature scan.

The nature of data set [2]: DSC thermogram of the protein alone (Example 1: buffer, E. coli lysate or HEK293 supernatant background subtracted). Format: physicochemical. The protocol:
as §1, §2, §3, §4
The thermogram measured for the supernatant, without ACE2 present, served as the background against which comparisons were made. […] These curves have similar shapes but there is a clear difference for the thermogram of the supernatant containing ACE2. To isolate and enhance the specific contributions to the thermogram of ACE2 protein, the background thermogram for the supernatant alone was subtracted from that for ACE2 in the supernatant. […] This observation is in precise agreement with published results of DSC measurements on unmodified ACE2, that also found two peaks at precisely the same temperatures (Voronov et al., FEBS Letters 2002, 522:77-82). […]

In data set [3] the test system is ACE2. Particulars: previous molecular docking studies; cited from earlier work.
In data set [4] the test system is COVID-19. Particulars: cited from earlier work.
Data set [5] in a line: DSC melting temperature of pure proteins and DNA hairpin in standard buffer (Example 2). In kind it is physicochemical. Particulars: standard buffer pH=7.4, independent of concentration.
Procedure: Chemicals and reagents: Standard buffer for all experiments contained 150 mM NaCl, 10 mM potassium phosphate, 15 mM sodium citrate adjusted to pH=7.4 with hydrochloric acid. Pure Proteins: Human Serum Albumin (HSA) (≥99% pure, Lot number: SLBT8667) and lysozyme (recombinant, expressed in rice, Lot number: SLCH2681). The above proteins were prepared in standard buffer and stored at 4° C. for at least 24 hours before use. Concentrations of HSA and lysozyme were confirmed spectrophotometrically at A280.
DNA: The DNA was a 20-base pair hairpin purchased from IDT and received following a standard desalting routine. […] Lyophilized DNA was resuspended in standard buffer and stored at 4° C. DNA concentration matched the manufacturer specification as determined spectrophotometrically at A260.
DSC Measurements: DSC melting experiments were made using a CSC differential scanning microcalorimeter (now T.A. instruments, New Castle, Del.). […]
Baselines of the raw ΔCp or μcal versus temperature thermograms were determined using a four-point polynomial fit, over the temperature range of the transition, consistent with previous methods (Eskew et al., Anal Biochem 2021, 612:113843; Koslen et al., Adv in Biol Chem 2019, 9; Eskew et al., Anal Biochem 2021, 628:114293). […]
The target of data set [6] is T2, unpurified angiotensin converting enzyme 2 (ACE2) expressed in human embryonic kidney cells (HEK293) (Homo sapiens, UniProt Q9BYF1).
T2 construct: the expressed region for the purchased ACE2 was from Gln18-Ser740; His-tag; purchased RayBiotech Lot number: 02U2802LL; host or cells: HEK293
T2 sequence (Q9BYF1 18-740): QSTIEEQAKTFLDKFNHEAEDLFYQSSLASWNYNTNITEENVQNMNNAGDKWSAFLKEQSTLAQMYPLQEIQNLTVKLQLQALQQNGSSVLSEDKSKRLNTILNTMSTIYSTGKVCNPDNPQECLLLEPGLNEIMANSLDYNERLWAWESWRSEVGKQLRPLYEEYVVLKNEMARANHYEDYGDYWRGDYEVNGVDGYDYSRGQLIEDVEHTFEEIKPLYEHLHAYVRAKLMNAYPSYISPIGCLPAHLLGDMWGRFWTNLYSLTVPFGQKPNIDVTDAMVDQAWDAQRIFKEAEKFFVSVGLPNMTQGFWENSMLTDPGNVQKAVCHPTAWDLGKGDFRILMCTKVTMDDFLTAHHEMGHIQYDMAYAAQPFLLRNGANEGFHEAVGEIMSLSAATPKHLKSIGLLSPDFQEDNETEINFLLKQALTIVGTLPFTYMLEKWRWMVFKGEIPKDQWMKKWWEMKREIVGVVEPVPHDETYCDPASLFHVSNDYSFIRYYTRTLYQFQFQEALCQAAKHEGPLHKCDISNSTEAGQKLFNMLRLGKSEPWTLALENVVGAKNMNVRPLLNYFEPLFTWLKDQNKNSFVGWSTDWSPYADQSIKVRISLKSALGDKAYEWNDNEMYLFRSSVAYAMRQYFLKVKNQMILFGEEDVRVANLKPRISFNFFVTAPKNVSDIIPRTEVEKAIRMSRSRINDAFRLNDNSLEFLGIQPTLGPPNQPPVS
In kind it is binding.

Setting [7] is: 1 mg/mL Streptavidin (33%, Condition-II), E. coli lysate.
The mark [8] stands for this setting: 1 mg/mL Streptavidin (control), in buffer.
Setting [9] is: 2 mg/mL Streptavidin (11%, Condition-III), E. coli lysate.
Where [10] appears, read: 2 mg/mL Streptavidin (33%, Condition-I), E. coli lysate.
[11] abbreviates: Conditions-I and II, difference thermograms FIGS. 5A and 5B.
[12] abbreviates: unpurified ACE2 in HEK293 supernatant, background subtracted (FIG. 6B).

T1 sequence (P22629 25-183): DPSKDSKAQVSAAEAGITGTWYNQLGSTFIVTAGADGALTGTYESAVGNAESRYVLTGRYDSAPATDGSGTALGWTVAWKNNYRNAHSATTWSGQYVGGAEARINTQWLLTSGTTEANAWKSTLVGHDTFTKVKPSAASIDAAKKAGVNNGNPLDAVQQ

Take `O=C(O)CCCC[C@@H]1SC[C@@H]2NC(=O)N[C@@H]21` [Biotin, biotin]: the “Streptavidin + Biotin Tm” value in data set [1] (setting [7]) was 79.96 ± 0.36 °C; in data set [1] (setting [8]) it was 79.17 ± 0.06 °C; in data set [1] (setting [9]), 80.71 ± 0.12 °C; in data set [1] (setting [10]), 81.16 ± 0.07 °C. The “shift up of streptavidin melting temperature with biotin” value in data set [1] (Conditions I-III) was 1-2 °C. Also, the “shift in Tm for the dominant peak on addition of biotin” value in data set [1] (setting [11]) is roughly 1 °C. In data set [1] (in E. coli lysate at decreased concentrations), the “temperature shift of streptavidin thermogram with biotin” value is 1.4 °C and 0.9 °C. Moreover, the “reduction in peak height of streptavidin thermogram with biotin binding” value in data set [1] (streptavidin (1 mg/mL) + 2 molar equivalents biotin in buffer (FIG. 5D)) is 20%.

Take Streptavidin: the “Streptavidin Tm” value worked out at 79.03 ± 0.18 °C in data set [2] (setting [7]), 77.39 ± 0.05 °C in data set [2] (setting [8]), 79.82 ± 0.10 °C in data set [2] (setting [9]) and 79.70 ± 0.02 °C in data set [2] (setting [10]). Also, the “melting temperature of streptavidin without biotin” value in data set [2] (Conditions I-III) is “around 80 °C”. The molecule also displayed a streptavidin peak temperature in data set [2] (setting [11]) of roughly 79 °C.

Regarding `NCCCC[C@H](N[C@@H](CCc1ccccc1)C(=O)O)C(=O)N1CCC[C@H]1C(=O)O` [Lisinopril], the “binding to ACE2 compared with captopril (docking)” value in data set [3] is listed as “stronger binder to ACE2”. The “inhibiting COVID-19 infection” value in data set [4] is “ineffective”.

For “lysozyme: lysozyme, recombinant, expressed in rice”, in data set [5], the Tm turned out to be 64.77±0.16 °C.

With `C[C@H](CS)C(=O)N1CCC[C@H]1C(=O)O` [Captopril], the “binding to / effect on ACE2 from difference thermogram” value in data set [6] is given as “relatively lesser effect on ACE2”.

Consider “5′-CGGGCGCGTTTTCGCGCCCG-3′ (DNA CGGGCGCGTTTTCGCGCCCG; DNA, backbone and methylation of C not given here; hairpin) [DNA hairpin, 20-base single strand oligomer forming an intramolecular stem-loop hairpin, DNA standard molecule]”, for which the Tm in data set [5] was determined as 94.34±0.06 °C.

As for “ACE2: unpurified angiotensin converting enzyme 2 expressed in HEK293 cells, Gln18-Ser740, RayBiotech”, in data set [2] (setting [12]), the “difference thermogram peak temperature (peak assigned to C-domain)” value came to 55.6 °C and the “difference thermogram peak temperature (peak assigned to N-domain)” value is 70.6 °C.
